Data reported in ChEMBL document CHEMBL3046559, “Sterile oat (Avena sterilis L.) cross-resistance profile to ACCase-inhibiting herbicides in Greece” (2012).

Assays:
Type in all cases: functional
Avena sterilis [1] = test: Herbicidal activity against Avena sterilis accession P01 assessed as weed survival at 8 times field recommended herbicide dose
Avena sterilis [2] = test: Herbicidal activity against Avena sterilis accession P08 assessed as weed survival at 1 times field recommended herbicide dose
Avena sterilis [3] = test: Herbicidal activity against Avena sterilis accession P02 assessed as weed survival at 1 times field recommended herbicide dose
Avena sterilis [4] = test: Herbicidal activity against Avena sterilis accession P22 assessed as weed survival at 4 times field recommended herbicide dose
Avena sterilis [5] = test: Herbicidal activity against Avena sterilis accession P12 assessed as weed survival at 1 times field recommended herbicide dose
Avena sterilis [6] = test: Herbicidal activity against Avena sterilis accession P05 assessed as weed survival at 32 times field recommended herbicide dose
Avena sterilis [7] = test: Herbicidal activity against Avena sterilis accession P04 assessed as weed survival at 16 times field recommended herbicide dose
Avena sterilis [8] = test: Herbicidal activity against Avena sterilis accession P04 assessed as induction of weed mortality
Avena sterilis [9] = test: Herbicidal activity against Avena sterilis accession P20 assessed as weed survival at 16 times field recommended herbicide dose
Avena sterilis [10] = test: Herbicidal activity against Avena sterilis accession P06S assessed as weed survival at 1/16 times field recommended herbicide dose
Avena sterilis [11] = test: Herbicidal activity against Avena sterilis accession P18 assessed as induction of weed mortality
Avena sterilis [12] = test: Herbicidal activity against Avena sterilis accession P09 assessed as weed survival at 8 times field recommended herbicide dose
Avena sterilis [13] = test: Herbicidal activity against Avena sterilis accession P12 assessed as weed survival at 4 times field recommended herbicide dose
Avena sterilis [14] = test: Herbicidal activity against Avena sterilis accession P18 assessed as weed survival at 4 times field recommended herbicide dose
Avena sterilis [15] = test: Herbicidal activity against Avena sterilis accession P13S assessed as weed survival at 1/8 times field recommended herbicide dose
Avena sterilis [16] = test: Herbicidal activity against Avena sterilis accession P03 assessed as weed survival at 4 times field recommended herbicide dose
Avena sterilis [17] = test: Herbicidal activity against Avena sterilis accession P08 assessed as weed survival at 32 times field recommended herbicide dose
Avena sterilis [18] = test: Herbicidal activity against Avena sterilis accession P12 assessed as induction of weed mortality
Avena sterilis [19] = test: Herbicidal activity against Avena sterilis accession P14 assessed as weed survival at 8 times field recommended herbicide dose
Avena sterilis [20] = test: Herbicidal activity against Avena sterilis accession P10S assessed as weed survival at 1/32 times field recommended herbicide dose
Avena sterilis [21] = test: Herbicidal activity against Avena sterilis accession P10S assessed as weed survival at 1/4 times field recommended herbicide dose
Avena sterilis [22] = test: Herbicidal activity against Avena sterilis accession P09 assessed as weed survival at 4 times field recommended herbicide dose
Avena sterilis [23] = test: Herbicidal activity against Avena sterilis accession P06S assessed as induction of weed mortality
Avena sterilis [24] = test: Herbicidal activity against Avena sterilis accession P22 assessed as induction of weed mortality
Avena sterilis [25] = test: Herbicidal activity against Avena sterilis accession P05 assessed as weed survival at 16 times field recommended herbicide dose
Avena sterilis [26] = test: Herbicidal activity against Avena sterilis accession P07 assessed as weed survival at 4 times field recommended herbicide dose
Avena sterilis [27] = test: Herbicidal activity against Avena sterilis accession P14 assessed as weed survival at 4 times field recommended herbicide dose
Avena sterilis [28] = test: Herbicidal activity against Avena sterilis accession P21S assessed as induction of weed mortality
Avena sterilis [29] = test: Herbicidal activity against Avena sterilis accession P07 assessed as weed survival at 16 times field recommended herbicide dose
Avena sterilis [30] = test: Herbicidal activity against Avena sterilis accession P03 assessed as weed survival at 1 times field recommended herbicide dose
Avena sterilis [31] = test: Herbicidal activity against Avena sterilis accession P21S assessed as weed survival at 1 times field recommended herbicide dose
Avena sterilis [32] = test: Herbicidal activity against Avena sterilis accession P20 assessed as weed survival at 32 times field recommended herbicide dose
Avena sterilis [33] = test: Herbicidal activity against Avena sterilis accession P01 assessed as weed survival at 1 times field recommended herbicide dose
Avena sterilis [34] = test: Herbicidal activity against Avena sterilis accession P18 assessed as weed survival at 8 times field recommended herbicide dose
Avena sterilis [35] = test: Herbicidal activity against Avena sterilis accession P18 assessed as weed survival at 16 times field recommended herbicide dose
Avena sterilis [36] = test: Herbicidal activity against Avena sterilis accession P15 assessed as weed survival at 1 times field recommended herbicide dose
Avena sterilis [37] = test: Herbicidal activity against Avena sterilis accession P01 assessed as weed survival at 32 times field recommended herbicide dose
Avena sterilis [38] = test: Herbicidal activity against Avena sterilis accession P18 assessed as weed survival at 32 times field recommended herbicide dose
Avena sterilis [39] = test: Herbicidal activity against Avena sterilis accession P11 assessed as weed survival at 1 times field recommended herbicide dose
Avena sterilis [40] = test: Herbicidal activity against Avena sterilis accession P15 assessed as weed survival at 4 times field recommended herbicide dose
Avena sterilis [41] = test: Herbicidal activity against Avena sterilis accession P22 assessed as weed survival at 1 times field recommended herbicide dose
Avena sterilis [42] = test: Herbicidal activity against Avena sterilis accession P07 assessed as weed survival at 32 times field recommended herbicide dose
Avena sterilis [43] = test: Herbicidal activity against Avena sterilis accession P14 assessed as weed survival at 16 times field recommended herbicide dose
Avena sterilis [44] = test: Herbicidal activity against Avena sterilis accession P12 assessed as weed survival at 8 times field recommended herbicide dose
Avena sterilis [45] = test: Herbicidal activity against Avena sterilis accession P22 assessed as weed survival at 8 times field recommended herbicide dose
Avena sterilis [46] = test: Herbicidal activity against Avena sterilis accession P06S assessed as weed survival at 1/8 times field recommended herbicide dose
Avena sterilis [47] = test: Herbicidal activity against Avena sterilis accession P17 assessed as weed survival at 8 times field recommended herbicide dose
Avena sterilis [48] = test: Herbicidal activity against Avena sterilis accession P13S assessed as weed survival at 1/32 times field recommended herbicide dose
Avena sterilis [49] = test: Herbicidal activity against Avena sterilis accession P05 assessed as weed survival at 1 times field recommended herbicide dose
Avena sterilis [50] = test: Herbicidal activity against Avena sterilis accession P15 assessed as weed survival at 32 times field recommended herbicide dose
Avena sterilis [51] = test: Herbicidal activity against Avena sterilis accession P13S assessed as weed survival at 1/16 times field recommended herbicide dose
Avena sterilis [52] = test: Herbicidal activity against Avena sterilis accession P02 assessed as weed survival at 8 times field recommended herbicide dose
Avena sterilis [53] = test: Herbicidal activity against Avena sterilis accession P16 assessed as weed survival at 32 times field recommended herbicide dose
Avena sterilis [54] = test: Herbicidal activity against Avena sterilis accession P13S assessed as induction of weed mortality
Avena sterilis [55] = test: Herbicidal activity against Avena sterilis accession P05 assessed as weed survival at 4 times field recommended herbicide dose
Avena sterilis [56] = test: Herbicidal activity against Avena sterilis accession P11 assessed as weed survival at 16 times field recommended herbicide dose
Avena sterilis [57] = test: Herbicidal activity against Avena sterilis accession P05 assessed as weed survival at 8 times field recommended herbicide dose
Avena sterilis [58] = test: Herbicidal activity against Avena sterilis accession P15 assessed as weed survival at 16 times field recommended herbicide dose

In the case of COC(=O)C(C)Oc1ccc(Oc2ccc(Cl)cc2Cl)cc1 (stereo unspecified) [DICLOFOP-METHYL], the Survival (Avena sterilis [1]) is reported as 80%, the Survival (Avena sterilis [2]) is reported as 97% and the Survival (Avena sterilis [3]) is reported as 100%. It also gave a Survival (Avena sterilis [4]) of 63%, a Survival (Avena sterilis [5]) of 80% and a Survival (Avena sterilis [6]) of 20%. The Survival (Avena sterilis [7]) was 53%, the GR50 (Avena sterilis [8]) was 14196 gAi/ha and the Survival (Avena sterilis [9]) was 80%. It also gave a Survival (Avena sterilis [10]) of 100%, a GR50 (Avena sterilis [11]) of 10199 gAi/ha and a Survival (Avena sterilis [12]) of 73%. The Survival (Avena sterilis [13]) was 80%, the Survival (Avena sterilis [14]) was 80% and the Survival (Avena sterilis [15]) was 83%. It also gave a Survival (Avena sterilis [16]) of 93%, a Survival (Avena sterilis [17]) of 33% and a GR50 (Avena sterilis [18]) of over 22740 gAi/ha. For the same molecule, the Survival (Avena sterilis [19]) was 60%, the Survival (Avena sterilis [20]) was 100% and the Survival (Avena sterilis [21]) was 90%. It also gave a Survival (Avena sterilis [22]) of 80%, a GR50 (Avena sterilis [23]) of 548 gAi/ha and a GR50 (Avena sterilis [24]) of 3989 gAi/ha. It also gave a Survival (Avena sterilis [25]) of 20%, a Survival (Avena sterilis [26]) of 60% and a Survival (Avena sterilis [27]) of 77%. The GR50 (Avena sterilis [28]) was 418 gAi/ha, the Survival (Avena sterilis [29]) was 20% and the Survival (Avena sterilis [30]) was 100%. For the same molecule, the Survival (Avena sterilis [31]) was 27%, the Survival (Avena sterilis [32]) was 70% and the Survival (Avena sterilis [33]) was 90%. The Survival (Avena sterilis [34]) was 60%, the Survival (Avena sterilis [35]) was 40% and the Survival (Avena sterilis [36]) was 100%. It also gave a Survival (Avena sterilis [37]) of 50%, a Survival (Avena sterilis [38]) of 40% and a Survival (Avena sterilis [39]) of 100%. For the same molecule, the Survival (Avena sterilis [40]) was 100%, the Survival (Avena sterilis [41]) was 97% and the Survival (Avena sterilis [42]) was 20%. It also gave a Survival (Avena sterilis [43]) of 50%, a Survival (Avena sterilis [44]) of 80% and a Survival (Avena sterilis [45]) of 40%. For the same molecule, the Survival (Avena sterilis [46]) was 90%, the Survival (Avena sterilis [47]) was 60% and the Survival (Avena sterilis [48]) was 100%. The Survival (Avena sterilis [49]) was 100%, the Survival (Avena sterilis [50]) was 80% and the Survival (Avena sterilis [51]) was 90%. The Survival (Avena sterilis [52]) was 80%, the Survival (Avena sterilis [53]) was 20% and the GR50 (Avena sterilis [54]) was 509 gAi/ha. The Survival (Avena sterilis [55]) was 70%, the Survival (Avena sterilis [56]) was 70% and the Survival (Avena sterilis [57]) was 40%. For the same molecule, the Survival (Avena sterilis [58]) was 83%.
Molecule CCOC(=O)[C@@H](C)Oc1ccc(Oc2nc3ccc(Cl)cc3o2)cc1 [FENOXAPROP-P-ETHYL] has a Survival (Avena sterilis [1]) of 40%, a Survival (Avena sterilis [2]) of 100% and a Survival (Avena sterilis [3]) of 100%. It also gave a Survival (Avena sterilis [4]) of 40%, a Survival (Avena sterilis [5]) of 100% and a Survival (Avena sterilis [6]) of 0%. It also gave a Survival (Avena sterilis [7]) of 37%, a GR50 (Avena sterilis [8]) of 913 gAi/ha and a Survival (Avena sterilis [9]) of 83%. It also gave a Survival (Avena sterilis [10]) of 90%, a GR50 (Avena sterilis [11]) of over 2640 gAi/ha and a Survival (Avena sterilis [12]) of 80%. The Survival (Avena sterilis [13]) was 80%, the Survival (Avena sterilis [14]) was 97% and the Survival (Avena sterilis [15]) was 80%. For the same molecule, the Survival (Avena sterilis [16]) was 50%, the Survival (Avena sterilis [17]) was 20% and the GR50 (Avena sterilis [18]) was 1290 gAi/ha. It also gave a Survival (Avena sterilis [19]) of 27%, a Survival (Avena sterilis [20]) of 100% and a Survival (Avena sterilis [21]) of 30%. The Survival (Avena sterilis [22]) was 80%, the GR50 (Avena sterilis [23]) was 18 gAi/ha and the GR50 (Avena sterilis [24]) was 250 gAi/ha. For the same molecule, the Survival (Avena sterilis [25]) was 20%, the Survival (Avena sterilis [26]) was 77% and the Survival (Avena sterilis [27]) was 43%. The GR50 (Avena sterilis [28]) was 18 gAi/ha, the Survival (Avena sterilis [29]) was 80% and the Survival (Avena sterilis [30]) was 97%. The Survival (Avena sterilis [31]) was 0%, the Survival (Avena sterilis [32]) was 53% and the Survival (Avena sterilis [33]) was 97%. For the same molecule, the Survival (Avena sterilis [34]) was 90%, the Survival (Avena sterilis [35]) was 73% and the Survival (Avena sterilis [36]) was 100%. The Survival (Avena sterilis [37]) was 20%, the Survival (Avena sterilis [38]) was 60% and the Survival (Avena sterilis [39]) was 97%. The Survival (Avena sterilis [40]) was 100%, the Survival (Avena sterilis [41]) was 87% and the Survival (Avena sterilis [42]) was 70%. It also gave a Survival (Avena sterilis [43]) of 20%, a Survival (Avena sterilis [44]) of 53% and a Survival (Avena sterilis [45]) of 7%. For the same molecule, the Survival (Avena sterilis [46]) was 80%, the Survival (Avena sterilis [47]) was 20% and the Survival (Avena sterilis [48]) was 90%. It also gave a Survival (Avena sterilis [49]) of 77%, a Survival (Avena sterilis [50]) of 23% and a Survival (Avena sterilis [51]) of 80%. The Survival (Avena sterilis [52]) was 93%, the Survival (Avena sterilis [53]) was 0% and the GR50 (Avena sterilis [54]) was 18 gAi/ha. The Survival (Avena sterilis [55]) was 25%, the Survival (Avena sterilis [56]) was 57% and the Survival (Avena sterilis [57]) was 20%. It also gave a Survival (Avena sterilis [58]) of 60%.
